Experimental data published in ChEMBL document CHEMBL5653615 (J Biol Chem, 2013).

Experiments:
[1] = target: Tyrosine-protein kinase Srms (Homo sapiens) (UniProt Q9H3Y6); assay: Inhibition of human SRMS at 500 nM by HotSpot assay relative to control
[2] = target: T1, Serine/threonine-protein kinase Sgk3 (Homo sapiens) (UniProt Q96BR1); assay: Inhibition of human SGKL at 500 nM by HotSpot assay relative to control
T1 sequence (whole entry): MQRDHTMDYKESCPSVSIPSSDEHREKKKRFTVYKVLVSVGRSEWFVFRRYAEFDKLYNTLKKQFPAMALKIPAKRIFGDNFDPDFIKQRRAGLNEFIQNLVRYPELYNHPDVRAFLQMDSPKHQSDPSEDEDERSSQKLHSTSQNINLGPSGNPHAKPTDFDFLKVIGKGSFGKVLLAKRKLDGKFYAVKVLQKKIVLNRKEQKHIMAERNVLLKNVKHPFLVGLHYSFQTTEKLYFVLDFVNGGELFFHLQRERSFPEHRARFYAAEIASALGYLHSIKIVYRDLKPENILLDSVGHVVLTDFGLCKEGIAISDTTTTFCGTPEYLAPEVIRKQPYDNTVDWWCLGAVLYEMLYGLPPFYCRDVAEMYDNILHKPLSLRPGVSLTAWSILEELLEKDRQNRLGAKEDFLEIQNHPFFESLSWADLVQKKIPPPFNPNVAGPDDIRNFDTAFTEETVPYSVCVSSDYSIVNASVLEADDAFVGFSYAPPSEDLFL

[3] = target: Serine/threonine-protein kinase PAK 1 (Homo sapiens) (UniProt Q13153); assay: Inhibition of human PAK1 at 500 nM by HotSpot assay relative to control
[4] = target: Myosin light chain kinase, smooth muscle (Homo sapiens) (UniProt Q15746); assay: Inhibition of human MYLK at 500 nM by HotSpot assay relative to control
[5] = target: T2, Activin receptor type-1B (Homo sapiens) (UniProt P36896); assay: Inhibition of human ALK4 at 500 nM by HotSpot assay relative to control
T2 sequence (whole entry): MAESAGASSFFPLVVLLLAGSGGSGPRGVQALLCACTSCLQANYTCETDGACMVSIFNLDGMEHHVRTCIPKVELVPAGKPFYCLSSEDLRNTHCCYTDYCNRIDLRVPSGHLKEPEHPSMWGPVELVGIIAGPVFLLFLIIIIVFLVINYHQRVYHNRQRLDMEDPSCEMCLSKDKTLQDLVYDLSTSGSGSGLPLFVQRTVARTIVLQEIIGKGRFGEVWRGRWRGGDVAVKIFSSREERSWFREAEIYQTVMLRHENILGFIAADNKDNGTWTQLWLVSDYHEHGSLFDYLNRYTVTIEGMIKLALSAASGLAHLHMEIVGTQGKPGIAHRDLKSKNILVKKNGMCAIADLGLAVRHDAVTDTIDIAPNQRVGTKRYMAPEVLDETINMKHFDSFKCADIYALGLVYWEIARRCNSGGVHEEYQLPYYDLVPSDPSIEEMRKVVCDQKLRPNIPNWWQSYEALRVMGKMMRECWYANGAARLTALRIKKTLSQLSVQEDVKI

[6] = target: Mitogen-activated protein kinase kinase kinase kinase 4 (Homo sapiens) (UniProt O95819); assay: Inhibition of human HGK at 500 nM by HotSpot assay relative to control
[7] = target: Cyclin-dependent kinase 1/cyclin B1 (Homo sapiens) (UniProt P06493+P14635); assay: Inhibition of human CDK1/cyclin B at 500 nM by HotSpot assay relative to control; type: protein-complex assay
[8] = target: Serine/threonine-protein kinase N1 (Homo sapiens) (UniProt Q16512); assay: Inhibition of human PRK1 at 500 nM by HotSpot assay relative to control
Chain of Serine/threonine-protein kinase N1 (Homo sapiens) (Q16512 2-942 limits assumed): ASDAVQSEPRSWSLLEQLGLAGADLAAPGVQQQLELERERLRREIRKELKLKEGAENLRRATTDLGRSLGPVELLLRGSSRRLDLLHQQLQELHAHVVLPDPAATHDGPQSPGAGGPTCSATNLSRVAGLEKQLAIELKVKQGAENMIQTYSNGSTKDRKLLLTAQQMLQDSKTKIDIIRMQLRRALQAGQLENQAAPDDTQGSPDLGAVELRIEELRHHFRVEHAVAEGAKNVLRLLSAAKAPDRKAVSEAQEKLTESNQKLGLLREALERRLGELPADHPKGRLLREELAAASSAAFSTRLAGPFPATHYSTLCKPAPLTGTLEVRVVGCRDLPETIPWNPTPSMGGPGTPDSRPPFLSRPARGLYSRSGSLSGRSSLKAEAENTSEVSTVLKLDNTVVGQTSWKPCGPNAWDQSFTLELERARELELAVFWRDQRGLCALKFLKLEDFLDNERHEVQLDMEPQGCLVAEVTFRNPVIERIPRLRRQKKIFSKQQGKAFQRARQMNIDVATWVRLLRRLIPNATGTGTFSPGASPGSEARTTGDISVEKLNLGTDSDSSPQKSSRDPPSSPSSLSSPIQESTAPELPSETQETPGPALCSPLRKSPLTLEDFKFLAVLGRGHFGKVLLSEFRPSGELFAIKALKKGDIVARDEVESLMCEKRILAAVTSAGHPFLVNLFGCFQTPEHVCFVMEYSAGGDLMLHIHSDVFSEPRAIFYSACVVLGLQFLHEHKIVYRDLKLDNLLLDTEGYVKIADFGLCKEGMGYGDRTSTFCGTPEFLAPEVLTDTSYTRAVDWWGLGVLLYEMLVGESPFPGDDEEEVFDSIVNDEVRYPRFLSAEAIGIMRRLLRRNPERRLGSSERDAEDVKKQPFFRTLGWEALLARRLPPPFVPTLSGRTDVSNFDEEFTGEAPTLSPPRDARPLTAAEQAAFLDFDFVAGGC

[9] = target: Vascular endothelial growth factor receptor 1 (Homo sapiens) (UniProt P17948); assay: Inhibition of human FLT1 at 500 nM by HotSpot assay relative to control
[10] = target: Proto-oncogene tyrosine-protein kinase Src (Homo sapiens) (UniProt P12931); assay: Inhibition of human c-Src at 500 nM by HotSpot assay relative to control
Chain of Proto-oncogene tyrosine-protein kinase Src (Homo sapiens) (P12931 2-536 limits assumed): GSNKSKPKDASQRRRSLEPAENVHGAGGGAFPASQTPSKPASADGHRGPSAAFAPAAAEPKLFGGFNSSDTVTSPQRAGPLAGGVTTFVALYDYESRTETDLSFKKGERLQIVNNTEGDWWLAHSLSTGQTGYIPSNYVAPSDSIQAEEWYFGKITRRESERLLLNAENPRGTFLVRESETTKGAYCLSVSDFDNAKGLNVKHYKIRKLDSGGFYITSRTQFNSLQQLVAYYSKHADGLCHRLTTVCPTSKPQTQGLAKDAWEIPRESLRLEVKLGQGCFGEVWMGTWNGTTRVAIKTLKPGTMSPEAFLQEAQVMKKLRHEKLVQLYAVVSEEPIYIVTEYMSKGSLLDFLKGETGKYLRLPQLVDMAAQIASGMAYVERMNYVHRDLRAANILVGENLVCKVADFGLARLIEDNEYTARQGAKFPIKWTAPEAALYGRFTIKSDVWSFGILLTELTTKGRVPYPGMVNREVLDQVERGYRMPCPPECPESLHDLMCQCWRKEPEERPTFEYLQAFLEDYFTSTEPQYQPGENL

[11] = target: Homeodomain-interacting protein kinase 2 (Homo sapiens) (UniProt Q9H2X6); assay: Inhibition of human HIPK2 at 500 nM by HotSpot assay relative to control
Chain of Homeodomain-interacting protein kinase 2 (Homo sapiens) (Q9H2X6 whole entry, looked up): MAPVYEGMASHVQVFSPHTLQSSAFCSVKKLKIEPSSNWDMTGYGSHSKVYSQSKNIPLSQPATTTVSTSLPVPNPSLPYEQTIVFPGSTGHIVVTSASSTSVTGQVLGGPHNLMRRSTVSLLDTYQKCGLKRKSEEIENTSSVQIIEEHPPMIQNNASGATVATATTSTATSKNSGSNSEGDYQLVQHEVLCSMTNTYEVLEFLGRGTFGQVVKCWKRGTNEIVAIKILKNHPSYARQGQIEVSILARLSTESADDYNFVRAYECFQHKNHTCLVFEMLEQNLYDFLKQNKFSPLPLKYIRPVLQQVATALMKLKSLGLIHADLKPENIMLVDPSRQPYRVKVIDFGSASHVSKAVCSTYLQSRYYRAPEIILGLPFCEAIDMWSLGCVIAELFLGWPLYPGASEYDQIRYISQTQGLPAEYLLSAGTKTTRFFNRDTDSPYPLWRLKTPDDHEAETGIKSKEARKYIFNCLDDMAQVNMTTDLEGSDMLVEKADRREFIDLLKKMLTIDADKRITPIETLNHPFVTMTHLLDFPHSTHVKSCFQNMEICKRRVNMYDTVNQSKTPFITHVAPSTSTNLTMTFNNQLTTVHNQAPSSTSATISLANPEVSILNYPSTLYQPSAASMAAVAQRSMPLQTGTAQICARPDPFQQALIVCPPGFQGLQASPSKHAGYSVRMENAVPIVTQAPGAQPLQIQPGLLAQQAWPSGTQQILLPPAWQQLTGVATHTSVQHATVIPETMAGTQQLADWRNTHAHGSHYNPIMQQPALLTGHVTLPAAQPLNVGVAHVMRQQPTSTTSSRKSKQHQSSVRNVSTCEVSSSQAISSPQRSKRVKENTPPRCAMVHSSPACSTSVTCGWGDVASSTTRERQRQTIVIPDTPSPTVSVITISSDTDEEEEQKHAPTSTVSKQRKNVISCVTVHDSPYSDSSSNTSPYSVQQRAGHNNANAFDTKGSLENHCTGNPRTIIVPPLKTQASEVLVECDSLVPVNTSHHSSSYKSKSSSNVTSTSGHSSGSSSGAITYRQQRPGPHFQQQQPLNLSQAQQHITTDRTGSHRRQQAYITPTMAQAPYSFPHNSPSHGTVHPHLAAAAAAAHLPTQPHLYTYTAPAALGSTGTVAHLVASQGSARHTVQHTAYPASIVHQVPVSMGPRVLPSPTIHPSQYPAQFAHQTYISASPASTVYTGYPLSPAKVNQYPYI

[12] = target: Tyrosine-protein kinase FRK (Homo sapiens) (UniProt P42685); assay: Inhibition of human FRK at 500 nM by HotSpot assay relative to control
Homo sapiens = organism: Homo sapiens; assay: Inhibition of human CDK2/cyclin A at 500 nM by HotSpot assay relative to control
[13] = target: Wee1-like protein kinase (Homo sapiens) (UniProt P30291); assay: Inhibition of human WEE1 at 500 nM by HotSpot assay relative to control
Chain of Wee1-like protein kinase (Homo sapiens) (P30291 whole entry, looked up): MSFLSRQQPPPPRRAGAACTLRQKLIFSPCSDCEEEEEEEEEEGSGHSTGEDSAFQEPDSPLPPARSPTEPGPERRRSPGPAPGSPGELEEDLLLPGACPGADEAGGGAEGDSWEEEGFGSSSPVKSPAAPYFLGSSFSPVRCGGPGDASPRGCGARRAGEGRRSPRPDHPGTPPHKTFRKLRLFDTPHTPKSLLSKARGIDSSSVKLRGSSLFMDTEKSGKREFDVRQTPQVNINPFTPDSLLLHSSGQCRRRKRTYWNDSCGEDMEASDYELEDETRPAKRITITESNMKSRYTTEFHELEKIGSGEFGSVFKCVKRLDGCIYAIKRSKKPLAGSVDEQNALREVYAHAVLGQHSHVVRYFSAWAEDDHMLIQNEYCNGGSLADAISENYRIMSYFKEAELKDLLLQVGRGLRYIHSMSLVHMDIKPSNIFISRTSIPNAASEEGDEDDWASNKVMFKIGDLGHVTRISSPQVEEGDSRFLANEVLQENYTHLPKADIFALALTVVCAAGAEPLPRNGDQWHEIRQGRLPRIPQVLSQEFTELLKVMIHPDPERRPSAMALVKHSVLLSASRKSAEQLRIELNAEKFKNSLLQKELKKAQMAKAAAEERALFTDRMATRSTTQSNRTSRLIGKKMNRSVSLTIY

[14] = target: CDK3/Cyclin E (Homo sapiens) (UniProt P24864+Q00526); assay: Inhibition of human CDK3/cyclin E at 500 nM by HotSpot assay relative to control; type: protein-complex assay
Chain of CDK3/Cyclin E (Homo sapiens) (P24864 whole entry, looked up): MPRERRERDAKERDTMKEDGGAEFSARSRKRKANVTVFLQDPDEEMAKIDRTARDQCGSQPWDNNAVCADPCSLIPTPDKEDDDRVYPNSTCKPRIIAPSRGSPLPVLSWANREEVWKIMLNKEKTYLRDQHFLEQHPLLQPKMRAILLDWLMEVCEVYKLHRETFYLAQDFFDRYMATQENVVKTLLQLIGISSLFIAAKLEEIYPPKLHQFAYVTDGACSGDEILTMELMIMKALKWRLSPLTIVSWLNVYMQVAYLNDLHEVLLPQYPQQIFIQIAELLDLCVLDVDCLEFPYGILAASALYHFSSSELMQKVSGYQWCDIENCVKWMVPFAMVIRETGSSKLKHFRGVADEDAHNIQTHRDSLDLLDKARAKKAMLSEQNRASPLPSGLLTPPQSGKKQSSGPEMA
Chain of CDK3/Cyclin E (Homo sapiens) (Q00526 whole entry, looked up): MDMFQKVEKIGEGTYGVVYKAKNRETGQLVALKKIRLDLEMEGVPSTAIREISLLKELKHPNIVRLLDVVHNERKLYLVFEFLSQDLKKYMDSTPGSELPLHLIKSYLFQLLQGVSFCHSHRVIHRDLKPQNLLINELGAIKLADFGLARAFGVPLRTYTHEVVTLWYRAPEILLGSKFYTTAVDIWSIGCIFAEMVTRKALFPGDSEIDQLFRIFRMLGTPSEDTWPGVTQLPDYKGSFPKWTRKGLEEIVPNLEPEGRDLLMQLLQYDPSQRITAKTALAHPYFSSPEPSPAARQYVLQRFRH

[15] = target: T3, Serine/threonine-protein kinase D2 (Homo sapiens) (UniProt Q9BZL6); assay: Inhibition of human PRKD2 at 500 nM by HotSpot assay relative to control
T3 sequence (whole entry): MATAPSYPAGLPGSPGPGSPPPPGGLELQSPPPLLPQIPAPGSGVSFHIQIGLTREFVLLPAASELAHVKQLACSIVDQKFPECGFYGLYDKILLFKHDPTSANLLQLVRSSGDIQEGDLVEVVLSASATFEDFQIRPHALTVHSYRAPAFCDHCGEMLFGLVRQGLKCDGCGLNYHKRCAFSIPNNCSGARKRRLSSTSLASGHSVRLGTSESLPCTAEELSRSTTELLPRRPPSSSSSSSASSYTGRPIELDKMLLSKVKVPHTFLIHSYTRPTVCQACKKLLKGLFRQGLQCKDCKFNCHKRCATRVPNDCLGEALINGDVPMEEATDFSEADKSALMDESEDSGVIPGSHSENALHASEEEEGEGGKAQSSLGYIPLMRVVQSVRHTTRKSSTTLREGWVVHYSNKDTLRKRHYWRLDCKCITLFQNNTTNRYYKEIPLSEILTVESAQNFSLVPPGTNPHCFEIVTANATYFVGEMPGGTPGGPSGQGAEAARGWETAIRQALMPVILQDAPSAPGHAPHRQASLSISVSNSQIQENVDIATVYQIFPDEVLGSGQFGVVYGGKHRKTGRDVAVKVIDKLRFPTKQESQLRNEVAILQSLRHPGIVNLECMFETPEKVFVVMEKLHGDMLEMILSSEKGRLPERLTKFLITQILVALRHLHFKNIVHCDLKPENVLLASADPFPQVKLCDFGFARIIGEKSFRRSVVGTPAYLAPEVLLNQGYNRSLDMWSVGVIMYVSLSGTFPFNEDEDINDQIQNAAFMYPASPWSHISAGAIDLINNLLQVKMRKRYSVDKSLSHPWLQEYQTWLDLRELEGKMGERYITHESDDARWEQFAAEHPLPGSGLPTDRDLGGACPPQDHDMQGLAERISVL

[16] = target: Ephrin type-A receptor 5 (Homo sapiens) (UniProt P54756); assay: Inhibition of human EPHA5 at 500 nM by HotSpot assay relative to control
Chain of Ephrin type-A receptor 5 (Homo sapiens) (P54756 whole entry): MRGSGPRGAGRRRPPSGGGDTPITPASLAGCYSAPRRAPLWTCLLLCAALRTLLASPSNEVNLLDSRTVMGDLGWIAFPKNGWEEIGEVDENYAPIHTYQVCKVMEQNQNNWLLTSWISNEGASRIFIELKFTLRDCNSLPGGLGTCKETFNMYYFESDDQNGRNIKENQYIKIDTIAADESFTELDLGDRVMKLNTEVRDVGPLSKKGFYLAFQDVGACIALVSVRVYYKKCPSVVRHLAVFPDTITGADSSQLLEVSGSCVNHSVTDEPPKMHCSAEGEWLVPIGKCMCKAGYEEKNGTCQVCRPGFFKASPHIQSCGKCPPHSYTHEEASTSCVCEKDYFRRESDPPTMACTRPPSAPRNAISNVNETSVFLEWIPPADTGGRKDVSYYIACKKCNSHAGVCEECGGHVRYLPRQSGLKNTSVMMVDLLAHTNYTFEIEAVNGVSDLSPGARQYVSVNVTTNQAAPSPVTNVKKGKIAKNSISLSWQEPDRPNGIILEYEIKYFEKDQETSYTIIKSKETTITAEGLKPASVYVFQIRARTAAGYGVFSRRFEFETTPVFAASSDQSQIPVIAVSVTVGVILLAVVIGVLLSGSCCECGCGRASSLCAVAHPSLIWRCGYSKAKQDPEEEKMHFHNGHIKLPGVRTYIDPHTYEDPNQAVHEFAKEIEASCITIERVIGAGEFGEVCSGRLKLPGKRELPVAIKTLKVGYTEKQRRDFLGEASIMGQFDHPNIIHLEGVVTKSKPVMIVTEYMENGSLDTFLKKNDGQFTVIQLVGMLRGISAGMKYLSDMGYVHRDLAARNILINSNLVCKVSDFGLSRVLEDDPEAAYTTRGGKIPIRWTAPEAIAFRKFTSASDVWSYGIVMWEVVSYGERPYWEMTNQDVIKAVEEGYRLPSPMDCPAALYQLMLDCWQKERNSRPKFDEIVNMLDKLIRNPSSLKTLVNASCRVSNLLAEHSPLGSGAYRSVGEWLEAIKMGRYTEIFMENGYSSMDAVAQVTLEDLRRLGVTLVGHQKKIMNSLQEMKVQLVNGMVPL

SMILES	inhibition [1]	inhibition [2]	inhibition [3]	inhibition [4]	inhibition [5]	inhibition [6]	inhibition [7]	inhibition [8]	inhibition [9]	inhibition [10]	inhibition [11]	inhibition [12]	inhibition (Homo sapiens)	inhibition [13]	inhibition [14]	inhibition [15]	inhibition [16]
Nc1n[nH]c2nnc(-c3c(-c4ccccc4)nn4ccccc34)cc12	7.04%	9.81%	8.08%	1.66%	-6.71%	38%	9.79%	1.8%	3.34%	-0.45%	0.35%	-1.32%	7.12%	7.57%	3.23%	45.9%	-0.54%
Oc1n[nH]c2nnc(-c3c(-c4ccccc4)nn4ccccc34)cc12	0.83%	0.31%	7.2%	1.22%	0.15%	0.95%	9.98%	-0.85%	0.38%	-2.58%	-0.79%	-4.01%	-0.72%	20.8%	1.33%	2.86%	-0.84%
